Data from patent publication US20220324868A1, “Pyrazolone-Fused Pyrimidine Compound, and Preparation Method and Use Therefor” (SHANGHAI PHARMACEUTICALS HOLDING CO., LTD., priority 2019, published 2022).
Where two headings read alike, the source gives them in different places.

Experiments:
Hela cells = experiment: Proliferation inhibition of Hela cells (Luminescence ATP Detection, ATPlite); format: cell-based; conditions: Homo sapiens, 72 hours
Description: (§1) I. Proliferation Inhibitory of the Compound on COLO 205 Cells and Hela Cells.
(§2) COLO205 cells, purchased from SIBS, generation P11; Hela purchased from ATCC, generation P13.
Cell culture and inoculation: on the first day of the experiment, cells in normal culture were taken in their exponential growth state, digested and dispersed, the cell density was adjusted to 9×10^3 cells/mL, and 40 μL per well were inoculated into 384-well cell culture plates; after inoculation was completed, the microplates were placed at 37° C. and 5% CO2 for incubation.
(§3) Drug treatment of cells: on the second day of the experiment, microplates were removed from the incubator, 9× compound were added to each well in the microplate, and 5 μL was added to each well, wherein there were 2 replicate wells for each drug concentration and 10 drug concentrations for each compound. According to different cell lines, the initial concentration of each compound was different, after the completion, the microplate was cultured at 37° C. and 5% CO2 for 72 hours.
(§4) Data collection: the microplates were removed from the incubator and equilibrated at room temperature for 30 minutes. 40 μL of ATPlite reaction mixture after room temperature equilibrium was added to each well, the solution was shaken at room temperature of 1300 rpm for 2 minutes, and then the microplate was placed in a HERAEUS Multifuge X1R centrifuge at 2000 rpm for 1 minute; after equilibrium at room temperature for 10 minutes, the fluorescence signal value was measured on EnVision™.
(§5) Calculation of cell viability: Cell viability(%)=signal value of administration/signal value of controlx 100%. Graphpad Prism 5.0 was used to fit Log(inhibitor) vs. response-Variable slope (four parameters) curves to the fluorescence signal values at each concentration, and the corresponding IC50 (half maximal inhibitory concentration) was calculated.

WEE1 kinase = biological target: T1, WEE1 kinase (Homo sapiens, UniProt P30291); experiment: Inhibitory effect on WEE1 kinase in vitro (ELISA); format: biochemical; conditions: ATP concentration of Km (12 μM), WEE1 0.15 ng/μL, 60 min
T1 construct: purchased CarnaBiosciences, Inc. 05-177
Description: I. Inhibitory Effect of Compound on WEE1 Kinase In Vitro
The tested compounds were screened on WEE1 kinase with ATP concentration of Km by ELISA. Three compounds were screened on WEE1 kinase to evaluate the kinase inhibitory activity of the tested compounds. In the detection process, the initial concentration of the tested compounds was all selected as 100 nM, and each compound was selected with 6 gradient dilution concentrations, the gradient dilution ratio was 4-fold, and two replicate wells were detected for each concentration, MK1775 was used as the standard control.
1. Coating substrate: 1) An appropriate volume of substrate storage solution protein tyrosinase (PTK) substrate (poly-Glu-Tyr) was taken, diluted 10 times with PBS, and the concentration was diluted from […]. The mixture was added to a high adsorption 96-well plate at 125 μL per well. The plate was placed in an incubator at 37° C. for overnight coating. 2) After 24 hours, the 96-well plate was taken out, the liquid in the 96-well plate was poured out, cleaned with washing buffer for 3 times, and the incubator at 37 was inverted and dried for 2 hours.
3. Enzyme reaction stage: 1) WEE1 kinase and ATP were prepared into 2× enzyme solution and 4× ATP solution respectively with 1× reaction buffer.
4. Reaction termination stage: 1) the reaction mixture in the plate was poured out, 200 μL of washing buffer was added to each well, and washed for 5 times; the primary antibody P-Tyr (PY99) (dilution ratio 1:2000) was added, 100 μL per well, at room temperature for 30 min. 2) The primary antibody in the plate was poured out, 200 μL of washing buffer was added to each well, and washed for 5 times; the second antibody Anti-mouse IgG HRP-linked Antibody (dilution ratio 1:2000) was added, 100 μL per well, at room temperature for 30 min. 3) The secondary antibody in the plate was poured out, washed 5 times with washing buffer, and TMB was added, 100 μL per well, and colored for 10-30 min, depending on the color depth. The reaction was terminated with 1N sulfuric acid before reading.
5. […] 2) Graphpad Prism 5.0 was used to fit Log(inhibitor) vs. response-Variable slope (four parameters) curves to the data, and the corresponding IC50 (half maximal inhibitory concentration) was calculated.

COLO 205 cells = experiment: Proliferation inhibition of COLO 205 cells (Luminescence ATP Detection, ATPlite); format: cell-based; conditions: Homo sapiens; p53-deficient cell line COLO 205, 72 hours
Description: as §1, §2
as §3, with “third” for “second”
as §4, with “collection: The” for “collection: the”, “minutes. 100” for “minutes. 40”
as §5

T1 sequence (P30291 whole entry): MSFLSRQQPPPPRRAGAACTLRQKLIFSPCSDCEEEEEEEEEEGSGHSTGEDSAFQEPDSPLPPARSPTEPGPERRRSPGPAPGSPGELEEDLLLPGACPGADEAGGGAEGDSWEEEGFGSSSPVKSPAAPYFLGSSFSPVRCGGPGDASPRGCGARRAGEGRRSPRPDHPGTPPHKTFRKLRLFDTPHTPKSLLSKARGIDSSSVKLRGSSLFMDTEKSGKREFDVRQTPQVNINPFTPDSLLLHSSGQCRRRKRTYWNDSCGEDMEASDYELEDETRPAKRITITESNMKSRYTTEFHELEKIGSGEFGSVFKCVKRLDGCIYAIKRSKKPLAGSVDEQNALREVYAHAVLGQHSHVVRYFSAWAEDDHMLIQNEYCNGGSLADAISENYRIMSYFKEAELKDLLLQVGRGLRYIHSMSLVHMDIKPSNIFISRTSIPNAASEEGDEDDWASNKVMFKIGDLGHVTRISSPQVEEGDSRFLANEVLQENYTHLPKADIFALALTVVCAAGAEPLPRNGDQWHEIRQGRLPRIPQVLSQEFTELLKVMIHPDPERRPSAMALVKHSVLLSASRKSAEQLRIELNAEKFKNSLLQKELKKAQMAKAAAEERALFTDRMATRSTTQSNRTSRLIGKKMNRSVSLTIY

IC50 (Hela cells) [µM]	IC50 (WEE1 kinase; read-out: WEE1 IC50) [nM]	IC50 (COLO 205 cells) [µM]	IC50 (WEE1 kinase; WEE1 IC50, nM) [nM]	Structure (SMILES)
0.534	2.87	1.67	–	C=CCn1c(=O)c2cnc(Nc3ccc(N4CCN(C)CC4)cc3)nc2n1-c1ccc2c(n1)C(O)CCC2 (stereo not drawn) [Compound I-23]
0.147	3.15	0.473	–	C=CCn1c(=O)c2cnc(Nc3ccc(N4CC5CN(C)CC5C4)cc3)nc2n1-c1ccc2c(n1)C(C)(O)CC2 (stereo not drawn) [Compound I-35, 2-allyl-1-(7-hydroxy-7-methyl-6,7-dihydro-5H-cyclopenta[b]pyridin-2-yl)-6-((4-(-5-methylhexahydropyrrolo[3,4-c]pyrrol-2(1H)-yl)phenyl)amino)-1,2-dihydro-3H-pyrazolo[3,4-d]pyrimidin-3-one]
0.192	2.81	0.363	–	C=CCn1c(=O)c2cnc(Nc3ccc(N4CC5(CCN(C)CC5)C4)cc3)nc2n1-c1ccc2c(n1)C(C)(O)CC2 (stereo not drawn) [Compound I-14, 2-allyl-1-(7-hydroxy-7-methyl-6,7-dihydro-5H-cyclopenta[b]pyridin-2-yl)-6-((4-(7-methyl-2,7-diazaspiro[3.5]nonan-2-yl)phenyl)amino)-1,2-dihydro-3H-pyrazolo[3,4-d]pyrimidin-3-one]
0.17	–	0.944	1.89	C=CCn1c(=O)c2cnc(Nc3ccc(N4CCN(C)CC4)cc3)nc2n1-c1ccc2c(n1)C(C)(O)CCC2 (stereo not drawn) [Compound I-19, 2-allyl-1-(8-hydroxy-8-methyl-5,6,7,8-tetrahydroquinolin-2-yl)-6-((4-(4-methylpiperazin-1-yl)phenyl)amino)-1,2-dihydro-3H-pyrazolo[3,4-d]pyrimidin-3-one]
0.317	11.3	1.19	–	C=CCn1c(=O)c2cnc(Nc3ccc(N4CC5(CCN(CC)CC5)C4)cc3)nc2n1-c1ccc2c(n1)C(O)CC2 (stereo not drawn) [Compound I-11]
0.345	2.55	1.74	–	C=CCn1c(=O)c2cnc(Nc3ccc(N4CCN(CC)CC4)cc3)nc2n1-c1ccc2c(n1)C(O)CC2 (stereo not drawn) [Compound I-2]
0.495	–	1.88	2.85	C=CCn1c(=O)c2cnc(Nc3ccc(N4CCN(C)CC4)cc3)nc2n1-c1ccc2c(n1)C(O)CC2 (stereo not drawn) [Compound I-1, 2-allyl-1-(7-hydroxy-6,7-dihydro-5H-cyclopenta[b]pyridin-2-yl)-6-((4-(4-methylpiperazin-1-yl)phenyl)amino)-1,2-dihydro-3H-pyrazolo[3,4-d]pyrimidin-3-one]

Continued, molecule first:

Structure (SMILES)	IC50 (Hela cells) [µM]	IC50 (WEE1 kinase; read-out: WEE1 IC50) [nM]	IC50 (COLO 205 cells) [µM]	IC50 (WEE1 kinase; WEE1 IC50, nM) [nM]
C=CCn1c(=O)c2cnc(Nc3ccc(N4C[C@@H]5CN(C(C)C6CC6)C[C@@H]5C4)cc3)nc2n1-c1ccc2c(n1)C(O)CC2 (stereo partly drawn) [Compound I-41]	0.224	10.6	0.786	–
C=CCn1c(=O)c2cnc(Nc3ccc(N4C[C@@H]5CN(C6CCC6)C[C@@H]5C4)cc3)nc2n1-c1ccc2c(n1)C(O)CC2 (stereo partly drawn) [Compound I-38]	0.134	2.43	0.451	–
C=CCn1c(=O)c2cnc(Nc3ccc(N4CC5(CCN(C)CC5)C4)cc3)nc2n1-c1ccc2c(n1)C(O)CC2 (stereo not drawn) [Compound I-10]	0.206	8.59	0.92	–
C=CCn1c(=O)c2cnc(Nc3ccc(C4CCC(N(C)C)CC4)cc3)nc2n1-c1ccc2c(n1)C(C)(O)CC2 (stereo not drawn) [Compound I-34]	0.214	4.79	1.58	–
C=CCn1c(=O)c2cnc(Nc3ccc(N4CCC(CN(C)C)CC4)cc3)nc2n1-c1ccc2c(n1)C(O)CC2 (stereo not drawn) [Compound I-5, 2-allyl-6-((4-(4-((dimethylamino)methyl)piperidin-1-yl)phenyl)amino)-1-(7-hydroxy-6,7-dihydro-5H-cyclopenta[b]pyridin-2-yl)-1,2-dihydro-3H-pyrazolo[3,4-d]pyrimidin-3-one]	0.392	3.62	2.55	–
C=CCn1c(=O)c2cnc(Nc3ccc(N4C[C@H]5CNC[C@H]5C4)cc3)nc2n1-c1ccc2c(n1)C(C)(O)CCC2 (stereo partly drawn) [Compound I-33, 2-allyl-6-((4-((3aR, 6aS)hexahydropyrrolo[3,4-c]pyrrolo-2(1H)-yl)phenyl)amino)-1-(8-hydroxy-8-methyl-5,6,7,8-tetrahydroquinolin-2-yl)-1,2-dihydro-3H-pyrazolo[3,4-d]pyrimidin-3-one]	0.2	3.48	0.891	–
C=CCn1c(=O)c2cnc(Nc3ccc(N4CCN(CC5CC5)CC4)cc3)nc2n1-c1ccc2c(n1)C(O)CC2 (stereo not drawn) [Compound I-4]	0.395	4.43	1.97	–
